The assay concerns the target intestinal alkaline phosphatase (Alpi), Mus musculus. The assay is described as follows: murine Alpi activation by analogs – biochemical, luminescence, SAR follow-up (AID 493146). The conditions noted are these: purified mouse IAP, luminescent substrate.

This passage reports EC50 results from PubChem BioAssay AID493146 (Sanford-Burnham Center for Chemical Genomics, 2011).

The source made the active and inactive calls. How the calls were made is not given here. Bounds are passed on as bounds.

Consider `N#Cc1c(SCC(=O)NCc2ccc3c(c2)OCO3)sc2c(O)cc(=O)[nH]c12`, for which the EC50 (usually the midpoint of the concentration-response curve) is > 100 µM (inactive).

Regarding `COc1ccc(N2CCN(C(=O)CN3C(=O)/C(=C\c4ccco4)SC3=S)CC2)cc1`, the EC50 is > 100 µM (inactive).

With `CCOc1ccc2nc(NC(=O)CN(C)S(=O)(=O)c3ccc4[nH]c(=O)oc4c3)sc2c1`, the EC50 was > 100 µM (inactive).

Regarding `CC(C)NC(=O)CSc1sc2c(O)cc(=O)[nH]c2c1C#N`, the EC50 is > 100 µM (inactive).

Consider `COc1ccc(OC)c(NC(=O)CSc2sc3c(O)cc(=O)[nH]c3c2C#N)c1`, for which the EC50 is > 100 µM (inactive).

Regarding `O=C(O)CC(C(=O)O)N1C(=O)/C(=C/c2ccc(-c3nc4ccccc4s3)o2)SC1=S` (stereo not drawn), the EC50 was > 100 µM (inactive).

On to `COc1cccc(NC(=O)CN(C)S(=O)(=O)c2ccc3[nH]c(=O)oc3c2)c1`, for which the EC50 is > 100 µM (inactive).

For `COc1ccc(CNC(=O)CSc2sc3c(O)cc(=O)[nH]c3c2C#N)cc1`, the EC50 is > 100 µM (inactive).

With `O=C(CCN1C(=O)/C(=C/c2ccco2)SC1=S)Nc1ccc(O)cc1C(=O)O`, the EC50 was > 100 µM (inactive).

In the case of `O=C(CN1C(=O)/C(=C/c2ccco2)SC1=S)N[C@@H]1CSC[C@@H]1O`, the EC50 was > 100 µM (inactive).

For the compound `CCOC(=O)N1CCN(S(=O)(=O)c2ccc3[nH]c(=O)oc3c2)CC1`, the EC50 was > 100 µM (inactive).

Take `CC(C)c1ccc(NC(=O)CCNS(=O)(=O)c2ccc3[nH]c(=O)oc3c2)cc1`: the EC50 was > 100 µM (inactive).

For `Cc1ccc(/C=C2\SC(=S)N(C3CCS(=O)(=O)C3)C2=O)o1` (stereo not drawn), the EC50 was > 100 µM (inactive).

In the case of `Cc1cc(=O)oc2cc(NC(=S)NCCC(c3ccccc3)c3ccccc3)ccc12`, the EC50 was > 100 µM (inactive).

In the case of `COC(=O)NNC(=O)c1cc(OC)c(OC)c(OC)c1`, the EC50 is > 100 µM (inactive).

Take `CCc1nnc(NC(=O)CSc2sc3c(O)cc(=O)[nH]c3c2C#N)s1`: the EC50 was > 100 µM (inactive).

Turning to `CCc1ccc(NC(=O)CN(C)S(=O)(=O)c2ccc3[nH]c(=O)oc3c2)cc1`, the EC50 was > 100 µM (inactive).

On to `N#Cc1c(SCC(=O)Nc2nc3ccccc3s2)sc2c(O)cc(=O)[nH]c12`, for which the EC50 is > 100 µM (inactive).

For the compound `COc1cc(C(=O)NNC(=O)C2CC2)cc(OC)c1OC`, the EC50 is > 100 µM (inactive).

With `Cc1ccc(NC(=O)CCNS(=O)(=O)c2ccc3[nH]c(=O)oc3c2)cc1N(C)C`, the EC50 is > 100 µM (inactive).

For the compound `Cc1cc(NC(=O)CSc2sc3c(O)cc(=O)[nH]c3c2C#N)ccc1Br`, the EC50 is > 100 µM (inactive).

Turning to `COc1ccc(NC(=O)C(CC(C)C)NS(=O)(=O)c2ccc3[nH]c(=O)oc3c2)cc1` (stereo not drawn), the EC50 was > 100 µM (inactive).

`CCN(CC)C(=O)CSc1sc2c(O)cc(=O)[nH]c2c1C#N`: the EC50 is > 100 µM (inactive).

For `CCOc1ccccc1NC(=O)CCNS(=O)(=O)c1ccc2[nH]c(=O)oc2c1`, the EC50 was > 100 µM (inactive).

As for `COc1cc(C(=O)NNC(=S)NC(=O)c2ccc(Cl)cc2)cc(OC)c1OC`, the EC50 is > 100 µM (inactive).

On to `N#Cc1cccc(NC(=O)CCNS(=O)(=O)c2ccc3[nH]c(=O)oc3c2)c1`, for which the EC50 is > 100 µM (inactive).

Turning to `O=C(NN=Cc1cccnc1)c1cc(O)c(O)c(O)c1`, the EC50 is > 100 µM (inactive).

For `O=C(CN1C(=O)/C(=C/c2ccco2)SC1=S)Nc1ccc2nccnc2c1`, the EC50 was > 100 µM (inactive).

Regarding `CN(C(=O)CN1C(=O)/C(=C\c2ccco2)SC1=S)C1CCS(=O)(=O)C1` (stereo not drawn), the EC50 was > 100 µM (inactive).

For `N#Cc1c(SCC(=O)Nc2ccc(Cl)cc2Cl)sc2c(O)cc(=O)[nH]c12`, the EC50 is > 100 µM (inactive).

Consider `CCOC(=O)NC(=O)CSc1sc2c(O)cc(=O)[nH]c2c1C#N`, for which the EC50 is > 100 µM (inactive).

Turning to `O=C(CN1C(=O)/C(=C\c2ccco2)SC1=S)Nc1cccc(C(=O)O)c1`, the EC50 is > 100 µM (inactive).

Consider `O=C(CCCN1C(=O)/C(=C\c2ccco2)SC1=S)Nc1ccc(O)cc1C(=O)O`, for which the EC50 is > 100 µM (inactive).

Regarding `CSc1cccc(NC(=O)CCNS(=O)(=O)c2ccc3[nH]c(=O)oc3c2)c1`, the EC50 was > 100 µM (inactive).

With `O=C1/C(=C/c2ccco2)SC(=S)N1C1CCS(=O)(=O)C1` (stereo not drawn), the EC50 was > 100 µM (inactive).

Take `Cc1ccc(/C=N/NC(=O)c2cc(O)c(O)c(O)c2)cc1`: the EC50 is > 100 µM (inactive).

In the case of `COc1ccc(OC)c(NC(=O)CCNS(=O)(=O)c2ccc3[nH]c(=O)oc3c2)c1`, the EC50 is > 100 µM (inactive).

For the compound `Cc1csc(NC(=O)CSc2sc3c(O)cc(=O)[nH]c3c2C#N)n1`, the EC50 was > 100 µM (inactive).

`COc1ccccc1NC(=O)CCNS(=O)(=O)c1ccc2[nH]c(=O)oc2c1`: the EC50 is > 100 µM (inactive).

Turning to `O=C(CN1C(=O)/C(=C/c2ccco2)SC1=S)NC1CCS(=O)(=O)C1` (stereo not drawn), the EC50 is > 100 µM (inactive).

For the compound `Cc1ccc(NC(=O)CSc2sc3c(O)cc(=O)[nH]c3c2C#N)c(F)c1`, the EC50 was > 100 µM (inactive).

As for `CCN(C(=O)C(C)N1C(=O)/C(=C/c2ccco2)SC1=S)C1CCS(=O)(=O)C1` (stereo not drawn), the EC50 was > 100 µM (inactive).

In the case of `CCN(C(=O)CN1C(=O)/C(=C\c2ccco2)SC1=S)C1CCS(=O)(=O)C1` (stereo not drawn), the EC50 is > 100 µM (inactive).

Consider `O=C(N/N=C/c1ccsc1)c1cc(O)c(O)c(O)c1`, for which the EC50 is > 100 µM (inactive).

`O=[N+]([O-])c1ccc(NC(=S)NCCC(c2ccccc2)c2ccccc2)cc1`: the EC50 is > 100 µM (inactive).

For the compound `CC(C(=O)Nc1cccc(C(=O)O)c1)N1C(=O)/C(=C\c2ccco2)SC1=S` (stereo not drawn), the EC50 was > 100 µM (inactive).

On to `Cc1ccc(NC(=O)CCNS(=O)(=O)c2ccc3[nH]c(=O)oc3c2)cc1F`, for which the EC50 is > 100 µM (inactive).

`COc1ccccc1CNC(=O)CCNS(=O)(=O)c1ccc2[nH]c(=O)oc2c1`: the EC50 is > 100 µM (inactive).

Take `COc1cc(Cl)c(C)cc1NC(=O)CSc1sc2c(O)cc(=O)[nH]c2c1C#N`: the EC50 is > 100 µM (inactive).

For the compound `O=C(CN1C(=O)/C(=C\c2ccco2)SC1=S)Nc1ccc(C(=O)O)cc1`, the EC50 is > 100 µM (inactive).

Consider `N#Cc1c(SCC(=O)Nc2ccc(C(F)(F)F)cc2)sc2c(O)cc(=O)[nH]c12`, for which the EC50 is > 100 µM (inactive).

On to `N#Cc1c(SCC(=O)Nc2nc3ccc(Br)cc3s2)sc2c(O)cc(=O)[nH]c12`, for which the EC50 is > 100 µM (inactive).

With `COc1cc([N+](=O)[O-])ccc1NC(=S)NCCC(c1ccccc1)c1ccccc1`, the EC50 is > 100 µM (inactive).

With `CCCSc1nnc(NC(=O)CSc2sc3c(O)cc(=O)[nH]c3c2C#N)s1`, the EC50 was > 100 µM (inactive).

Turning to `O=C(CN1C(=O)/C(=C/c2ccco2)SC1=S)NC1C=CS(=O)(=O)C1` (stereo not drawn), the EC50 is > 100 µM (inactive).

Regarding `O=C(CN1C(=O)/C(=C\c2ccco2)SC1=S)Nc1ccc(O)cc1C(=O)O`, the EC50 is > 100 µM (inactive).

Turning to `COc1ccc(Cl)cc1NC(=O)CSc1sc2c(O)cc(=O)[nH]c2c1C#N`, the EC50 is > 100 µM (inactive).

Consider `O=C(CCN1C(=O)/C(=C\c2ccco2)SC1=S)Nc1ccc(C(=O)O)c(O)c1`, for which the EC50 was > 100 µM (inactive).
